Data published in publication PMC5786431 (Journal of medicinal chemistry, 2017).

Assays:
[1] = intramuscular injection; cited from earlier work
[2] = Plasma concentration after oral administration; type: in vivo, mice; conditions: 100 mg/kg in 0.5% CMC suspension p.o.; 0.5 and 4 h; among 14b, 14g, 24a, 24c, 28a, 28c

SMILES	lag to reach steady-state concentrations [1]	plasma levels [2]
C[C@]12CC[C@@H]3c4ccc(O)cc4C[C@@H](CCCCCCCCC[S+]([O-])CCCC(F)(F)C(F)(F)F)[C@H]3[C@@H]1CC[C@@H]2O (stereo partly shown) [Compound 1, fulvestrant]	3–6 month	–
Cc1cc(F)cc(C)c1C(=O)c1sc2cc(O)ccc2c1Oc1ccc(/C=C/C(=O)O)cc1 [Compound 24c]	–	highest plasma levels
Cc1ccc(C(=O)c2sc3cc(O)ccc3c2Oc2ccc(/C=C/C(=O)O)cc2)c(C)c1 [Compound 28a, (E)-3-(4-((2-(2,4-dimethylbenzoyl)-6-hydroxybenzo[b]thiophen-3-yl)oxy)phenyl)acrylic acid]	–	highest plasma levels
Cc1cc(Cl)cc(C)c1C(=O)c1sc2cc(O)ccc2c1Oc1ccc(/C=C/C(=O)O)cc1 [Compound 28c, (E)-3-(4-((2-(4-chloro-2,6-dimethylbenzoyl)-6-hydroxybenzo[b]thiophen-3-yl)oxy)phenyl)acrylic acid]	–	highest plasma levels
